US10905761B2, “Use of a lipopeptide or lipoprotein as an adjuvant in therapeutic or prophylactic vaccinations” (HELMHOLTZ-ZENTRUM FUER INFEKTIONSFORSCHUNG GMBH, priority 2002, dated 2021)
Entries after “also recorded” stand apart in the source; their conditions may differ. No end group written: not given here.

Key:
[1] = system: primary dendritic cells from the bone marrow of BALB/c mice; assay: In vitro stimulation of primary dendritic cells; […]; format: cell-based
BALB/c (H-2d) mice [2] = assay: Humoral responses after immunization by various routes with MALP-2 as adjuvant (serum β-galactosidase-specific antibody ELISA, Example 2); format: in vivo; conditions: day 28
Method: Mice were immunized by subcutaneous (s.c.), intraperitoneal (i.p.), intradermal (i.d.) and intranasal (i.n.) routes with either pure β-galactosidase (40 μg) or β-galactosidase mixed with MALP-2 (0.5 μg) on days 0, 7 and 14. On day 28 after the primary immunization, serum samples were removed and the titer of β-galactosidase-specific antibodies was determined by means of an ELISA. The results are shown as reciprocal log2 of the geometric mean of the endpoint titer. As a control, we included a group in which the animals were immunized by the route with β-galactosidase using aluminum hydroxide as adjuvant.
Mice were immunized by the intraperitoneal (i.p.) and intranasal (i.n.) route with either pure β-galactosidase (40 μg/dose) or β-galactosidase mixed with MALP-2 (1 μg/dose) on days 0, 7 and 14. On day 28 after the primary immunization, serum samples were taken and the titer of β-galactosidase-specific antibodies was determined by means of an ELISA. The results are shown as absorbances (OD […]).
Six- to eight-week old female BALB/c (H-2d) mice were purchased from Harlan Winkelmann GmbH (Borchen, Germany) and treated in accordance with local and EU directives. Groups each of 5 mice were immunized on day 1, 7 and 14 either with 40 μg of pure β-galactosidase (Boehringer, Mannheim, Germany), or with admixture of 1 or 0.5 μg of synthetic MALP-2. For the intranasal administration (i.n.), 10 μl was administered into each nostril, whereas for i.p., s.c. and i.d. injection β-galactosidase was resuspended with or without MALP-2 in respectively 400, 100 and 100 μl of PBS. 28 days after the first immunization, serum samples were taken and stored at −20° C. until the β-gal-specific antibodies were determined. Nunc-Immuno MaxiSorp assay plates with 96 wells (Nunc, Roskilde, Denmark) were coated with 100 μl of β-galactosidase (Boehringer, Mannheim, Germany) with 5 μg/ml in 0.05 M carbonate buffer (pH 8.2) per well. Serum dilutions with 1% BSA and 0.05% Tween-20 in PBS were added ([…]), and the plates were incubated at 37° C. for 24 hours. […]

BALB/c (H-2d) mice [3] = format: in vivo; conditions: mice immunized i.n.; β-gal restimulation
BALB/c (H-2d) mice [4] = assay: Oral immunization with β-galactosidase and MALP-2 as mucosal adjuvant (serum antibody ELISA, Example 9); format: in vivo; conditions: 100 μg β-gal with 2 μg MALP-2, days 1, 14, 21, 31, serum day 45
Method: FIG. 12: Humoral responses stimulated after vaccination with MALP-2 as adjuvant in a dose 2 μg per animal per immunization. The mice were immunized orally either with β-galactosidase alone (100 μg/dose) or with β-galactosidase mixed with MALP-2 (2 μg/dose) on […]. On day 45 after the first immunization, serum samples were obtained, and the titers of the β-galactosidase-specific antibodies were determined with an ELISA.
Six- to eight-week old female BALB/c (H-2d) mice were purchased from Harlan Winkelmann GmbH (Borchen, Germany) and treated in accordance with local guidelines and directives of the European Community. Groups each of 5 mice were immunized on days 1, 14, 21 and 31 with 100 μg of β-gal (Boehringer, Mannheim, Germany) either alone or with 2 μg of synthetic MALP-2 as adjuvant by the oral route (dose 25 μl). On day 45, serum samples were taken and stored at −20° C. until β-gal-specific antibodies were determined. 96-well Nunc-Immuno MaxiSorp® assay plates (Nunc, Roskilde, Denmark) were coated with 100 μl of β-gal at 5 μg/ml in 0.05 M carbonate buffer (pH 8.2) per well. […] The final value titers have been expressed as the reciprocal logarithmic log2 values of the last dilution which resulted, after incubation for 30 minutes, in an optical density at 405 nm of 0.1 units above the values for the negative controls.

## S-[2,3-bispalmitoyloxypropyl]cysteinyl-GNNDESNISFKEK ({S‑(2,3-bispalmitoyloxypropyl)Cys}-GNNDESNISFKEK) [MALP-2]
[1]; 5 ng/ml MALP-2, 12 and 24 hours
  effect on expression of costimulating molecule CD80 in dendritic cells: slight, if present at all
[1]; 5 ng/ml MALP-2, 12 and 24 hours, versus LPS positive control
  expression of CD40 and costimulating molecule CD86 in dendritic cells: not increased
[1]; 5 ng/ml MALP-2, compared with LPS 10 ng/ml
  activation of primary dendritic cells: only a very weak activation
[1]; 10 ng/ml LPS or 5 ng/ml MALP-2
  up regulation of CD40, CD80 and CD86 in dendritic cells: only a weak effect, or none
BALB/c (H-2d) mice [2]; 0.5 μg MALP-2, s.c., i.p., i.d., i.n.
  antibody responses compared with aluminum hydroxide as standard adjuvant for s.c. injection: at least as strong as (i.d.) or stronger
BALB/c (H-2d) mice [2]; 0.5 μg MALP-2 mixed with 40 μg β-galactosidase, s.c., i.p., i.d., i.n.
  adjuvant effect on β-galactosidase-specific serum antibodies: significant increase; also recorded: strong adjuvant effect
BALB/c (H-2d) mice [2]; 1 μg MALP-2, i.p. and i.n.
  adjuvant effect on β-galactosidase-specific serum antibodies at higher dose: abolition of the adjuvant effect
BALB/c (H-2d) mice [3]
  IL-10 content in supernatants of spleen cells stimulated in vitro: 2.2 ng/mL
BALB/c (H-2d) mice [4]
  serum immune responses to β-gal after oral immunization: Immune responses to β-gal were observed
